From PubChem BioAssay AID1996
In brackets after ≈: the same amount, converted by molar mass.

Conditions: buffer; pH 7.4; 200.0 µM
Compound `CC(C)Oc1ccc(CC2(CCc3ccncc3)C(=O)NC(=O)NC2=O)cc1` has a solubility kinetic of 7.7 µg/mL (≈ 20.2 µM).
For `CC(NC(=O)c1ccco1)c1ccc2c(c1)OCO2` (stereo not given), the solubility kinetic was > 38.9 µg/mL.
With `Cc1ccc2c(c1)N(CC(=O)NCc1ccco1)C(=O)C(C(C)C)O2` (stereo not given) the solubility kinetic was 22.8 µg/mL (≈ 66.6 µM).
In the case of `CC1CCN(CC(=O)Nc2ccc(Cl)cc2[N+](=O)[O-])CC1`, the solubility kinetic is reported as 0.9 µg/mL (≈ 2.89 µM).
For `Cc1nc2ccccc2n1CCOc1ccc(F)cc1`, the solubility kinetic was 40.1 µg/mL (≈ 148 µM).
With `Clc1cccc(-c2csc(Nc3cccnc3)n2)c1` the solubility kinetic was < 0.2 µg/mL.
In the case of `C=CCC(=O)NC(C)c1cnn(-c2ccccc2C)c1C` (stereo not given), the solubility kinetic is reported as > 42.5 µg/mL.
With `COc1ccccc1NS(=O)(=O)c1cccc(C(=O)N2CCCC2)c1` the solubility kinetic was > 54.1 µg/mL.
With `O=C(CN1C(=O)NC2(CCCCCCC2)C1=O)Nc1cccc(Br)c1` the solubility kinetic was 8.2 µg/mL (≈ 20.1 µM).
`Cn1c(=O)n(Cc2ccccc2Br)c2ccccc21` showed a solubility kinetic of 7.8 µg/mL (≈ 24.6 µM).
In the case of `COc1ccc(NC(=O)CN2CCCCC2)cc1S(=O)(=O)N1CCCCC1.O=C(O)C(=O)O`, the solubility kinetic is reported as > 72.8 µg/mL.
In the case of `CC12CC3CC(C)(C1)CC(N)(C3)C2.Cl`, the solubility kinetic is reported as 29.4 µg/mL.
With `S=C(NCCCc1ccccc1)Nc1ccc(Br)cc1` the solubility kinetic was 4.5 µg/mL (≈ 12.9 µM).
With `COc1cccc(C(=O)N2CCC(C(=O)N3CCN(C)CC3)CC2)c1` the solubility kinetic was > 51.8 µg/mL.
`CCCN1CCN(CC(=O)Nc2nc3ccccc3s2)CC1` gave a solubility kinetic of 0.6 µg/mL (≈ 1.88 µM).
With `CCOc1ccc(-c2cnc(N)n2C)cc1` the solubility kinetic was 31.8 µg/mL (≈ 146 µM).
In the case of `O=C(NCCCNC(=O)c1cnccn1)c1cccc(Cl)c1`, the solubility kinetic is reported as 47.1 µg/mL (≈ 148 µM).
`CN(C)CCC(O)c1ccccc1` (stereo not given) gave a solubility kinetic of 13.3 µg/mL (≈ 74.2 µM).
For `CC1CCCCN1C(=O)COC(=O)Cc1c[nH]c2ccccc12` (stereo not given), the solubility kinetic was > 47.2 µg/mL.
With `Cc1cccc(NC(=S)N2CCC(O)CC2)c1C` the solubility kinetic was 36.5 µg/mL (≈ 138 µM).
In the case of `O=C(CNS(=O)(=O)c1ccccc1)Nc1ccc(F)cc1F`, the solubility kinetic is reported as > 48.9 µg/mL.
`CC1CCCCC1NC(=O)COC(=O)c1ccc2c(c1)NC(=O)CS2` (stereo not given) showed a solubility kinetic of 9.8 µg/mL (≈ 27 µM).
For `Cc1cc(Cl)ccc1OCC(=O)NC(=S)Nc1ccc(Cl)cn1`, the solubility kinetic was < 0.3 µg/mL.
For `O=C(NCCCCNC(=O)c1ccccc1F)c1ccccc1F`, the solubility kinetic was > 49.9 µg/mL.
With `COC(=O)c1cn(CC(=O)Nc2ccc(OC)cc2)c2ccccc12` the solubility kinetic was < 0.4 µg/mL.
With `CC12CCC(C[N+](C)(C)C1)C2(C)C.[I-]` (stereo not given) the solubility kinetic was > 46.4 µg/mL.
`CC(C)(C)N(Cc1cc2ccccc2[nH]c1=O)C(=O)c1ccco1` gave a solubility kinetic of 2.9 µg/mL (≈ 8.94 µM).
For `O=C(CSc1ncnc2sccc12)N1CCCCC1`, the solubility kinetic was > 44 µg/mL.
Compound `CC(C)CN(Cc1cc(=O)oc2cc3c(cc12)CCCC3)CC(C)C` has a solubility kinetic of 1.1 µg/mL (≈ 3.22 µM).
For `Cc1cc(NC(=O)CSCC(=O)Nc2cc(C(F)(F)F)ccc2N2CCCCC2)no1`, the solubility kinetic was 7.6 µg/mL (≈ 16.6 µM).
In the case of `CC1CC(C)(C)Nc2ccc(N=O)cc21` (stereo not given), the solubility kinetic is reported as > 30.6 µg/mL.
In the case of `CC(=O)Nc1ccc(C(=O)COC(=O)Cc2ccsc2)c(F)c1`, the solubility kinetic is reported as > 50.3 µg/mL.
Compound `CSc1ncccc1C(=O)NCC1CCCCC1` has a solubility kinetic of 38.4 µg/mL (≈ 145 µM).
`CCn1c(=O)c2c(nc3n2CCCN3c2cccc(C)c2)n(C)c1=O` showed a solubility kinetic of 48.3 µg/mL (≈ 142 µM).
In the case of `CCc1cc(=O)[nH]c(SCc2cccnc2)n1`, the solubility kinetic is reported as > 37.1 µg/mL.
For `Cc1nc(C(F)(F)F)ccc1C(=O)Nc1ccccc1F`, the solubility kinetic was > 44.7 µg/mL.
`CC1CCCN(S(=O)(=O)c2cc(C(=O)NCc3ccco3)ccc2Cl)C1` (stereo not given) showed a solubility kinetic of 52.6 µg/mL (≈ 133 µM).
Compound `Cc1ccc(-c2nc3ccccn3c2C=O)cc1` has a solubility kinetic of 8.5 µg/mL (≈ 36 µM).
Compound `Cc1ccnc(NC(=O)C(C)N2C(=O)c3ccccc3C2=O)c1` (stereo not given) has a solubility kinetic of 39.4 µg/mL (≈ 127 µM).
For `Oc1cccc(N2Cc3ccccc3C2)c1`, the solubility kinetic was 13 µg/mL (≈ 61.5 µM).
With `CCOCCCNC(=O)c1ccc(C2SCC(=O)N2Cc2ccccc2)cc1` (stereo not given) the solubility kinetic was > 59.8 µg/mL.
`OCCCNc1ncnc2c1[nH]c1ccccc12` showed a solubility kinetic of 35.6 µg/mL (≈ 147 µM).
Work on `Cc1ccc2nc(NC(=O)COC(=O)c3cccnc3)sc2c1` yielded a solubility kinetic of 7.5 µg/mL (≈ 22.9 µM).
`Cl.Nc1nc2ccccc2n1C(=O)c1cccs1` showed a solubility kinetic of 2 µg/mL.
`CC(=O)N[C@@H](Cc1c[nH]c2ccccc12)C(=O)OCc1cc(C(F)(F)F)cc(C(F)(F)F)c1` gave a solubility kinetic of 3.4 µg/mL (≈ 7.2 µM).
In the case of `CCOC(=O)c1cc(C)nc(N2CCCCC2)c1C#N`, the solubility kinetic is reported as 11.5 µg/mL (≈ 42.1 µM).
With `COC(=O)c1ccc(NC(=S)NN2CCOCC2)cc1` the solubility kinetic was > 44.3 µg/mL.
`COc1ccc(OC)c2c(=O)cc(C(=O)O)[nH]c12` showed a solubility kinetic of 14.6 µg/mL (≈ 58.6 µM).
With `Cc1ccc(NC(=O)Cn2cnc([N+](=O)[O-])c2)cc1C` the solubility kinetic was > 41.1 µg/mL.
With `COC(=O)c1cn(C(=O)c2ccc(F)cc2)c2ccccc12` the solubility kinetic was < 0.6 µg/mL.
For `CCc1ccc(NC(=S)N(Cc2ccccc2)Cc2ccccn2)cc1`, the solubility kinetic was 2.4 µg/mL (≈ 6.64 µM).
With `Cc1cc(C(=O)NCc2ccco2)sc1C` the solubility kinetic was > 35.3 µg/mL.
In the case of `O=C(CN1CCCc2ccccc21)Nc1ccccc1[N+](=O)[O-]`, the solubility kinetic is reported as 0.5 µg/mL (≈ 1.61 µM).
With `O=[N+]([O-])c1ccc(CSC2=NCCS2)cc1` the solubility kinetic was 16.1 µg/mL (≈ 63.3 µM).
`COc1ccc(Cl)cc1C(=O)NC1=NCCS1` gave a solubility kinetic of 38.6 µg/mL (≈ 143 µM).
With `CSc1cccc(NC(=S)N(C(C)C)C(C)c2ccccn2)c1` (stereo not given) the solubility kinetic was 9.6 µg/mL (≈ 27.8 µM).
Compound `CCc1ccc(-n2c([O-])c(C(C)=O)c(=O)[nH]c2=O)cc1.C[NH+](C)C` has a solubility kinetic of 38.5 µg/mL.
With `CC1(C)C2C/C(=N\O)C(C)(/[N+]([O-])=C/c3cccc([N+](=O)[O-])c3)CC21` (stereo not given) the solubility kinetic was 45.2 µg/mL (≈ 136 µM).
With `CCc1nc(Nc2ccc(O)cc2)c2oc3ccccc3c2n1.Cl` the solubility kinetic was 1.2 µg/mL.
`Cc1cc(C)c(C#N)c(Nc2ccc(F)cc2)n1` gave a solubility kinetic of 0.8 µg/mL (≈ 3.32 µM).
